Assay results published in US20040087512A1, “In-situ formation of CLA” (priority 1998, published 2004).

Experiments:
C57/B1/6J mice [1] = test: Example 6: milk and fecal fatty acid composition of mice fed oleic acid isomer diets (GC of FAME); assay type: in vivo; settings: day 10, fed the isomer diet
Source text: (§1) C57/B1/6J mice fed a control diet (10 wt % fat) were switched to one of four isomer diets at day 6 of lactation after milk collection. Approximately 25% of the dietary fat (5 caloric %) during the treatment period was replaced with one of four specific isomers of oleic acid, either cis-9; cis-11; trans-9 or trams-11, other diet components were identical. The mice consumed these diets ad libitum for four days and were milked again on day 10 of lactation. Milk and fecal fatty acid composition was analyzed as fatty acid methyl esters by GC. Specific isomers were identified by relative retention times. Milk fat percentage was determined by the creamatocrit method and differences between day 6 and day 10 fat percentages were evaluated by a paired t-test.

C57/B1/6J mice [2] = test: Example 6: milk fat percentage of mice fed oleic acid isomer diets (creamatocrit); assay type: in vivo; settings: for Milk fat on day 10 versus day 6 of lactation: isomer replaces about 25% of dietary fat, four days
Source text: as §1

cows = test: Milk fat levels in cows ingesting C18 trans 11 fats; settings: in vivo

CCCCCCCC/C=C/CCCCCCCC(=O)O [trans-9]
Test isomer in milk (C57/B1/6J mice [1]): 5.8 % of the fat
Milk fat on day 10 versus day 6 of lactation (C57/B1/6J mice [2]): statistically lower

CCCCCC/C=C\CCCCCCCCCC(=O)O [cis-11]
Test isomer in milk (C57/B1/6J mice [1]): 10 % of the fat
Milk fat on day 10 versus day 6 of lactation (C57/B1/6J mice [2]): numerically lower

CCCCCC/C=C/CCCCCCCCCC(=O)O [trans-11, trans vaccinic acid]
Test isomer in milk (C57/B1/6J mice [1]): 3 % of the fat
Milk fat on day 10 versus day 6 of lactation (C57/B1/6J mice [2]): numerically lower
Effect of ingestion on milk fat in the lactation products of mammals (C57/B1/6J mice [2]; mouse, in vivo): does not reduce milk fat
Effect of ingestion on milk fat levels in cows (cows): do not reduce milk fat levels

CCCCCCCC/C=C\CCCCCCCC(=O)O [cis-9]
Milk fat on day 10 versus day 6 of lactation (C57/B1/6J mice [2]): identical fat values
